Results as given in patent US10336762B2 (priority 2017, dated 2019).
Where two headings read alike, the source gives them in different places.

Experiments:
TNFα = test: cells; assay type: cell-based, human; settings: LPS-stimulated human monocytes, read-out: EC50 TNF
IRAK4 enzyme = IRAK4 enzyme (Homo sapiens (Human), UniProt Q9NWZ3); test: biochemical; assay type: biochemical; settings: IRAK4 enzyme, 500 μM ATP
[1] = Homo sapiens, Monocyte, TNFα content

Chain of IRAK4 enzyme (Q9NWZ3 whole entry): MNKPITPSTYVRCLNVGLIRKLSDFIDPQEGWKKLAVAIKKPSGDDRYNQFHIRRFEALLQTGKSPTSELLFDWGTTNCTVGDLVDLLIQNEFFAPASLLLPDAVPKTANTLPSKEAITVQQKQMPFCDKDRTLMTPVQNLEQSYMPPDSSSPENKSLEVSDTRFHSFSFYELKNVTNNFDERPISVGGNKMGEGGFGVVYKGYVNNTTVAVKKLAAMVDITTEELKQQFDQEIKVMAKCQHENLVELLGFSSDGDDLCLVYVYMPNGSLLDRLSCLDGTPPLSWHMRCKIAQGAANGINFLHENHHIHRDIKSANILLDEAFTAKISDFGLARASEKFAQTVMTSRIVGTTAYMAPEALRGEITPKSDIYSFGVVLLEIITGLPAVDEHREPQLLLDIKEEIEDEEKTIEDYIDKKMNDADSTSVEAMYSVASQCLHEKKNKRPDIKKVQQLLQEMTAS

Structure (SMILES)	EC50 (TNFα; [1]) [nM]	IC50 (IRAK4 enzyme; TR-FRET (HTRF)) [nM]	IC50 (IRAK4 enzyme; TR-FRET) [nM]	EC50 (TNFα; TNFα by TR-FRET) [nM]	EC50 (TNFα; Homo sapiens, Monocyte, TNFα by TR-FRET) [nM]
CC(C)(O)[C@H](F)CNC(=O)c1cnc(-c2ccc3cc(C#N)cnn23)cc1Nc1cccc(OC(F)F)c1 [Example 608, (R)-6-(3-cyanopyrrolo[1,2-b]pyridazin-7-yl)-4-((3-(difluoromethoxy)phenyl)amino)-N-(2-fluoro-3-hydroxy-3-methylbutyl) nicotinamide]	123	1			
CC(C)(O)[C@H](F)CNC(=O)c1cnc(-c2ccc3cc(C#N)cnn23)cc1Nc1ccc(CN2CCOC2=O)cc1 [Example 201, (R)-6-(3-cyanopyrrolo[1,2-b]pyridazin-7-yl)-N-(2-fluoro-3-hydroxy-3-methylbutyl)-4-((4-((2-oxooxazolidin-3-yl)methyl)phenyl)amino) nicotinamide]	11		1		
CC(C)(O)[C@H](F)CNC(=O)c1cnc(-c2ccc3cc(C#N)cnn23)cc1NCc1c[nH]cn1 [Example 105, (R)-4-(((1H-imidazol-4-yl)methyl)amino)-6-(3-cyanopyrrolo[1,2-b]pyridazin-7-yl)-N-(2-fluoro-3-hydroxy-3-methylbutyl)nicotinamide]	3160		9		
CC(C)(O)[C@H](F)CNC(=O)c1cnc(-c2ccc3cc(C#N)cnn23)cc1NC1CC2(CCN2)C1 (stereo partly drawn) [Example 911, 4-(((4R,6s)-1-azaspiro[3.3]heptan-6-yl)amino)-6-(3-cyanopyrrolo[1,2-b]pyridazin-7-yl)-N-((R)-2-fluoro-3-hydroxy-3-methylbutyl) nicotinamide]			7	318	
CC(C)(O)[C@H](F)CNC(=O)c1cnc(-c2ccc3cc(C#N)cnn23)cc1Nc1ccnnc1 [Example 183, (R)-6-(3-cyanopyrrolo[1,2-b]pyridazin-7-yl)-N-(2-fluoro-3-hydroxy-3-methylbutyl)-4-(pyridazin-4-ylamino)nicotinamide]	657		6		
CC(C)Nc1cc(-c2ccc3cc(C#N)cnn23)ncc1C(=O)N[C@@H]1CCOC[C@H]1F [Example 323, 6-(3-cyanopyrrolo[1,2-b]pyridazin-7-yl)-N-((3S,4R)-3-fluoro-tetrahydro-2H-pyran-4-yl)-4-(isopropylamino) nicotinamide]	187		5		
CC(C)(O)[C@H](F)CNC(=O)c1cnc(-c2ccc3cc(C#N)cnn23)cc1NC[C@H]1CCC(=O)N1 [Example 106, 6-(3-cyanopyrrolo[1,2-b]pyridazin-7-yl)-N-((R)-2-fluoro-3-hydroxy-3-methylbutyl)-4-((((R)-5-oxopyrrolidin-2-yl)methyl)amino) nicotinamide]	1380		3		
Cn1cncc1-c1ccc(Nc2cc(-c3ccc4cc(C#N)cnn34)ncc2C(=O)NC[C@@H](F)C(C)(C)O)cc1 [Example 210, (R)-6-(3-cyanopyrrolo[1,2-b]pyridazin-7-yl)-N-(2-fluoro-3-hydroxy-3-methylbutyl)-4-((4-(1-methyl-1H-imidazol-5-yl)phenyl)amino) nicotinamide]	39		< 1		
CC(C)(O)[C@H](F)CNC(=O)c1cnc(-c2ccc3cc(C#N)cnn23)cc1Nc1ccc(-n2cncn2)nc1 [Example 766, (R)-4-((6-(1H-1,2,4-triazol-1-yl)pyridin-3-yl)amino)-6-(3-cyanopyrrolo[1,2-b]pyridazin-7-yl)-N-(2-fluoro-3-hydroxy-3-methyl-butyl)nicotinamide]	38	< 1			
CN(C)S(=O)(=O)N[C@H]1CC[C@H](Nc2cc(-c3ccc4cc(C#N)cnn34)ncc2C(=O)NC[C@@H](F)C(C)(C)O)CC1 [Example 285, 6-(3-cyanopyrrolo[1,2-b]pyridazin-7-yl)-4-(((1r,4R)-4-((N,N-dimethylsulfamoyl)amino)cyclohexyl)amino)-N-((R)-2-fluoro-3-hydroxy-3-methylbutyl)nicotinamide]	167		2		
CN(C)C(=O)N1CCC(Nc2cc(-c3ccc4cc(C#N)cnn34)ncc2C(=O)NC[C@@H](F)C(C)(C)O)CC1 [Example 243, (R)-6-(3-cyanopyrrolo[1,2-b]pyridazin-7-yl)-4-((1-(dimethylcarbamoyl)piperidin-4-yl)amino)-N-(2-fluoro-3-hydroxy-3-methylbutyl)nicotinamide]	218		2		
CC1(F)CC(Nc2cc(-c3ccc4cc(C#N)cnn34)ncc2C(=O)NC[C@@H](F)C(C)(C)O)C1 (stereo partly drawn) [Example 136, (R)-6-(3-cyanopyrrolo[1,2-b]pyridazin-7-yl)-N-(2-fluoro-3-hydroxy-3-methylbutyl)-4-((3-fluoro-3-methylcyclobutyl)amino) nicotinamide]	163		2		
N#Cc1cnn2c(-c3cc(NC45CCC(O)(CC4)CC5)c(C(=O)NCC(=O)N4CC[C@@H](O)C4)cn3)ccc2c1 [Example 953, (R)-6-(3-cyanopyrrolo[1,2-b]pyridazin-7-yl)-4-((4-hydroxybicyclo[2.2.2]octan-1-yl)amino)-N-(2-(3-hydroxypyrrolidin-1-yl)-2-oxoethyl) nicotinamide]			< 1		240
COc1ccc(Nc2cc(-c3ccc4cc(C#N)cnn34)ncc2C(=O)NC[C@@H](F)C(C)(C)O)cc1 [Example 609, (R)-6-(3-cyanopyrrolo[1,2-b]pyridazin-7-yl)-N-(2-fluoro-3-hydroxy-3-methylbutyl)-4-((4-methoxyphenyl)amino) nicotinamide]	35	< 1			
CC(C)(O)[C@H](F)CNC(=O)c1cnc(-c2ccc3cc(C#N)cnn23)cc1N[C@H]1CC[C@H](N2CCC(F)(F)C2)CC1 [Example 723, 6-(3-cyanopyrrolo[1,2-b]pyridazin-7-yl)-4-(((1r,4R)-4-(3,3-difluoropyrrolidin-1-yl)cyclohexyl)amino)-N-((R)-2-fluoro-3-hydroxy-3-methylbutyl)nicotinamide]	793	7			
CC(C)(O)[C@H](F)CNC(=O)c1cnc(-c2ccc3cc(C#N)cnn23)cc1N[C@H]1CC[C@H](c2nncs2)CC1 [Example 642, 4-(((1r,4R)-4-(1,3,4-thiadiazol-2-yl)cyclo-hexyl)amino)-6-(3-cyanopyrrolo[1,2-b]pyridazin-7-yl)-N-((R)-2-fluoro-3-hydroxy-3-methylbutyl)nicotinamide]	13	< 1			
CN1CCC(Nc2cc(-c3ccc4cc(C#N)cnn34)ncc2C(=O)NC[C@@H](F)C(C)(C)O)CC1 [Example 114, (R)-6-(3-cyanopyrrolo[1,2-b]pyridazin-7-yl)-N-(2-fluoro-3-hydroxy-3-methylbutyl)-4-((1-methylpiperidin-4-yl)amino)nicotinamide]	177		4		
Cc1nnc(-c2ccc(Nc3cc(-c4ccc5cc(C#N)cnn45)ncc3C(=O)NC[C@@H](F)C(C)(C)O)cc2)o1 [Example 209, (R)-6-(3-cyanopyrrolo[1,2-b]pyridazin-7-yl)-N-(2-fluoro-3-hydroxy-3-methylbutyl)-4-((4-(5-methyl-1,3,4-oxadiazol-2-yl)phenyl)amino) nicotinamide]	84		< 1		
CC(C)(O)[C@H](F)CNC(=O)c1cnc(-c2ccc3cc(C#N)cnn23)cc1Nc1ccc(CO)cn1 [Example 670, (R)-6-(3-cyanopyrrolo[1,2-b]pyridazin-7-yl)-N-(2-fluoro-3-hydroxy-3-methylbutyl)-4-((5-(hydroxymethyl)pyridin-2-yl)amino)nicotinamide]	> 10000	93			
CC(C)(O)[C@H](F)CNC(=O)c1cnc(-c2ccc3cc(C#N)cnn23)cc1N[C@H]1C[C@H](OC(=O)NC2CC2)C1 [Example 160, (1R,3r)-3-((2-(3-cyano-pyrrolo[1,2-b]pyridazin-7-yl)-5-(((R)-2-fluoro-3-hydroxy-3-methylbutyl)carbamoyl)pyridin-4-yl)amino)cyclobutyl cyclopropylcarbamate]	> 10000		465		
CC(CCS(C)(=O)=O)Nc1cc(-c2ccc3cc(C#N)cnn23)ncc1C(=O)NC[C@@H](F)C(C)(C)O (stereo partly drawn) [Example 440, 6-(3-cyanopyrrolo[1,2-b]pyridazin-7-yl)-N-((R)-2-fluoro-3-hydroxy-3-methylbutyl)-4-((4-(methylsulfonyl)butan-2-yl)amino)nicotinamide]	715	2			
CCOc1cc(Nc2cc(-c3ccc4cc(C#N)cnn34)ncc2C(=O)NC[C@@H](F)C(C)(C)O)cnc1-c1cnco1 [Example 635, (R)-6-(3-cyanopyrrolo[1,2-b]pyridazin-7-yl)-4-((5-ethoxy-6-(oxazol-5-yl)pyridin-3-yl)amino)-N-(2-fluoro-3-hydroxy-3-methylbutyl)nicotinamide]	> 10000	8			
CC(C)Nc1cc(-c2ccc3cc(C#N)cnn23)ncc1C(=O)N[C@H]1C[C@@](C)(O)C1 [Example 120, 6-(3-cyanopyrrolo[1,2-b]pyridazin-7-yl)-N-((1s,3s)-3-hydroxy-3-methylcyclobutyl)-4-(isopropylamino) nicotinamide]	430		8		
CC(C)(O)[C@H](F)CNC(=O)c1cnc(-c2ccc3cc(C#N)cnn23)cc1N[C@@H]1CC2CN(C(N)=O)C[C@H]2C1 (stereo partly drawn) [Example 238, (3aR,5s,6aS)-5-((2-(3-cyanopyrrolo[1,2-b]pyridazin-7-yl)-5-(((R)-2-fluoro-3-hydroxy-3-methylbutyl)carbamoyl)pyridin-4-yl)amino)hexa-hydrocyclopenta[c]pyrrole-2(1H)-carboxamide]	225		< 1		
CN(C)C(=O)O[C@H]1CC[C@H](Nc2cc(-c3ccc4cc(C#N)cnn34)ncc2C(=O)NC[C@@H](F)C(C)(C)O)CC1 [Example 164, (1R,4r)-4-((2-(3-cyano-pyrrolo[1,2-b]pyridazin-7-yl)-5-(((R)-2-fluoro-3-hydroxy-3-methylbutyl)carbamoyl)pyridin-4-yl)amino)cyclohexyl dimethylcarbamate]	9940		132		
